What was measured:
[1] = target: T1, Bifunctional epoxide hydrolase 2 (Homo sapiens, UniProt P34913); experiment: Inhibition of full length human soluble epoxide hydrolase (1 to 555 residues) expressed in Escherichia coli BL21(DE3) using non-fluorescent PHOME as substrate preincubated for 30 mins followed by substrate addition and measured for 30 mins by fluorescence based assay
T1 sequence (P34913 whole entry): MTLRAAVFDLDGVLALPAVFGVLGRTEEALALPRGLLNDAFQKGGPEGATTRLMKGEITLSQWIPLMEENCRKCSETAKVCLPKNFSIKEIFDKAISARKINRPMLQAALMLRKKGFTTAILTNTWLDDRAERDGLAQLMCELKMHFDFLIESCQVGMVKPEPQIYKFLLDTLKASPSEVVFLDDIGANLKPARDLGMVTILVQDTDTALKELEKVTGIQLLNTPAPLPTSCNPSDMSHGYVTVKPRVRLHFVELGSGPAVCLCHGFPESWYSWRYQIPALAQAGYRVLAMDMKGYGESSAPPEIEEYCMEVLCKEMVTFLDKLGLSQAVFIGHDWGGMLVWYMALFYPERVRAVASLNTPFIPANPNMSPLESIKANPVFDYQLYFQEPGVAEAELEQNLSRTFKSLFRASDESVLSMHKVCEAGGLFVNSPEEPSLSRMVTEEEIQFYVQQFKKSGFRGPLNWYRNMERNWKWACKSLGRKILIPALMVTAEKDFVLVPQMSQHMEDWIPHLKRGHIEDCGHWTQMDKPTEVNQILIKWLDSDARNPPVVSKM

[2] = target: T2, Leukotriene A-4 hydrolase (Homo sapiens, UniProt P09960); experiment: Inhibition of (His)6 tagged human recombinant LTA4H expressed in Escherichia coli BL21(DE3) using non-fluorescent L-arginine-7-amino-4-methylcoumarine as substrate preincubated for 30 mins followed by substrate addition and measured for 30 mins by fluorescence based assay
T2 sequence (P09960 whole entry): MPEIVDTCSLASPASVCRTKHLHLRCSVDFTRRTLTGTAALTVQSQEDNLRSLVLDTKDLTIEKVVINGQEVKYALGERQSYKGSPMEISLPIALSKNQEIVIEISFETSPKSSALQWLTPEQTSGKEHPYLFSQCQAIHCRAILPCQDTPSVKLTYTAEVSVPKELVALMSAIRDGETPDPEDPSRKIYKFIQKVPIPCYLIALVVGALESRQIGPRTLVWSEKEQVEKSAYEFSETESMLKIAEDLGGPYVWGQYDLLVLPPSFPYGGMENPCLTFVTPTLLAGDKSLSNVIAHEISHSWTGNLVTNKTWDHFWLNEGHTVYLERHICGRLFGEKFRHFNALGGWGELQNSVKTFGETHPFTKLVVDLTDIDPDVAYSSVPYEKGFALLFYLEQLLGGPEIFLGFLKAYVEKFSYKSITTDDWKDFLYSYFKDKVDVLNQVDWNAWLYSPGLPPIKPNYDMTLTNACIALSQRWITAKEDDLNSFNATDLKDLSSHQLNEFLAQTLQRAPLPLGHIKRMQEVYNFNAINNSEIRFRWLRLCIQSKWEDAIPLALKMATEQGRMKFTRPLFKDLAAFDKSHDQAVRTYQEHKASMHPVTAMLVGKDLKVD

| Compound | IC50 [1] [nM] | IC50 [2] [µM] |
| --- | --- | --- |
| O=C(Cc1ccc(Oc2ccccc2)cc1)NCCc1ccc(F)cc1 | 900 | – |
| O=C(Cc1ccc(Oc2nc3cc(C(F)(F)F)ccc3s2)cc1F)NCCc1ccc(F)cc1 | 1700 | > 30 |
| O=C(Cc1ccc(Oc2nc3cc(F)ccc3s2)cc1F)NCCc1ccc(F)cc1 | 22500 | > 30 |
| Cc1ccc(CCNC(=O)Cc2ccc(Oc3ccccc3)cc2)cc1 | 1100 | > 30 |
| O=C(Cc1ccc(Oc2ccccc2)cc1)NCCc1ccc(Cl)cc1 | 1800 | – |
| O=C(Cc1ccc(Oc2nc3ccc(F)cc3s2)cc1F)NCCc1ccc(F)cc1 | 27500 | > 30 |
| O=C(CCc1ccc(OCc2ccncc2)cc1)NCCc1ccc(F)cc1 | 800 | > 30 |
| Fc1ccc(CCNCc2ccc(Oc3ccccc3)cc2)cc1 | 3600 | 0.2 |
| O=C(Cc1ccc(Oc2nc3ccc(C(F)(F)F)cc3s2)cc1F)NCCc1ccc(F)cc1 | 20100 | > 30 |
| O=C(Cc1ccc(Oc2nc3ccccc3s2)cc1F)NCc1c[nH]c2cc(F)ccc12 | 5600 | 0.9 |

Compounds with a lower IC50 [1], results first:

| IC50 [1] [nM] | IC50 [2] [µM] | Compound |
| --- | --- | --- |
| 100 | > 30 | COC(=O)c1ccc(CNC(=O)Cc2ccc(Oc3nc4ccccc4s3)cc2F)cc1 |
| 130 | 0.24 | O=C(Cc1ccc(Oc2nc3ccccc3s2)cc1)NCCc1ccc(F)cc1 |
| 500 | – | O=C(Cc1ccc(Oc2ccccc2)cc1)NCCc1ccc(C(F)(F)F)cc1 |
| 600 | 3.8 | O=C(Cc1ccc(Oc2nc3ccccc3s2)cc1F)NCCc1ccccc1F |
| 500 | – | O=C(Cc1ccc(Oc2ccccc2)cc1)NCCc1ccc(OC(F)(F)F)cc1 |
| 400 | – | O=C(Cc1ccc(Oc2nc3ccccc3s2)cc1F)NCCc1cccc(F)c1 |

— ChEMBL document CHEMBL4342480, “Design of Dual Inhibitors of Soluble Epoxide Hydrolase and LTA4 Hydrolase” (ACS Med Chem Lett, 2020)
